According to PMC5750217 (Nature Communications, 2018):

Legend:
wild-type GltPh = target: T1, wild-type GltPh (Pyrococcus horikoshii, UniProt O59010); assay: Proteoliposome transport assay, wild-type GltPh; assay type: biochemical; conditions: for Transport of radiolabelled substrate into proteoliposomes (in words): 1 µM L-[3H]substrate, Na+ gradient, pH 7.5
T1 construct: hexa-His (N, cleaved yes); made in house; host or cells: Escherichia coli Top10 (pBAD)
T1 sequence (O59010 1-425): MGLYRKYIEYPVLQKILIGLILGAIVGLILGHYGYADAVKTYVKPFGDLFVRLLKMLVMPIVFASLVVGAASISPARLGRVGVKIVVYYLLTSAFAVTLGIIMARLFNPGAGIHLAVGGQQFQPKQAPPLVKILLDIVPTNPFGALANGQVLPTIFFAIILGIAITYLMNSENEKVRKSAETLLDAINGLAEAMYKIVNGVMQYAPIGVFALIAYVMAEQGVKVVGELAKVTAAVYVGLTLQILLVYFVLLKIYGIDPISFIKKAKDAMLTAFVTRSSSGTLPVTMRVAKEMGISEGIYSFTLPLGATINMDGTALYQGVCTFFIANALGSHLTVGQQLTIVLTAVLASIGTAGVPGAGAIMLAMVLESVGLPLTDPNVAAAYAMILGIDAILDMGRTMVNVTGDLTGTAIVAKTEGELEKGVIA
Method: Mutant and wild-type GltPh with an amino-terminal hexa-His tag were expressed in Escherichia coli Top10 cells (Invitrogen), which were grown in Luria broth medium at 37 °C. Ampicillin was added to a final concentration of 100 μg per ml. To induce expression of GltPh, 0.1% L-arabinose was added when cells reached an optical density of 0.6 at 660 nm, and cells were harvested 4 h post induction. Membranes were isolated, and then solubilised with n-dodecyl-β-D-maltopyranoside (C12M, Anatrace). Histidine containing proteins were purified using Ni^2+−nitrilotriacetic acid resin (Qiagen). The histidine tag was subsequently removed from GltPh by digestion with thrombin (10 U per mg protein) and the protein further purified on a Superdex 200 size exclusion column, where the detergent was exchanged to n-decyl-β-D-maltopyranoside (C10M, Anatrace).
Pure protein was reconstituted into liposomes composed of 75% E. coli Polar Lipid Extract and 25% 1-palmitoyl-2-oleoyl-sn-glycero-3 ^−phopshocholine (Avanti Polar Lipids). Lipids were mixed, dried under nitrogen and resuspended in internal buffer (100 mM KCl, 20 mM HEPES-Tris pH 7.5) using brief sonication (Laboratory Supplies Co.). The lipid suspension was frozen in liquid nitrogen and thawed at room temperature several times. Liposomes were formed by extrusion through 400 nm polycarbonate membranes (Avanti Polar Lipids) and were treated with Triton X-100 at a 0.5:1 (w/w) detergent to lipid ratio prior to the addition of protein at 0.25 μg protein per mg lipid. The protein/lipid mixture was left at room temperature for 30 min before detergent was removed using SM2 Biobeads (BioRad). The mixture was then incubated with gentle agitation, with four consecutive batches of Biobeads (80 mg per ml). Proteoliposomes were concentrated by centrifugation at 150,000 g for 30 min, resuspended at 100 mg lipid per ml and either used immediately or flash-frozen in liquid nitrogen and stored at −80 °C.
Mutant and wild-type GltPh-mediated transport of radiolabelled substrate was assayed by diluting proteoliposomes (100 mg lipid per ml) 133-fold into uptake buffer (100 mM NaCl, 20 mM HEPES-Tris pH 7.5, 1 μM valinomycin, 100 nM–1 µM L-[^3H]substrate) pre-warmed to 30 °C. At each time point, a 200 µl aliquot was removed and diluted 10-fold into ice-cold quench buffer (100 mM LiCl, 20 mM HEPES-Tris pH 7.5), followed by immediate filtration over nitrocellulose filters (0.22 μm pore size, Millipore). The filters were washed with ice-cold quench buffer and assayed for radioactivity using a Trilux beta counter (PerkinElmer). To establish substrate concentration–response curves, extraliposomal L-[^3H]substrate was varied between 500 nM and 100 µM, maintaining NaCl concentrations at 300 mM. For inhibitor concentration–response curves, for wild-type GltPh 100 nM L-[^3H]aspartate, and for mutant GltPh 1 µM L-[^3H]serine, was co-applied with varying inhibitor concentrations. Background levels of uptake were measured by diluting proteoliposomes into internal buffer (100 mM KCl, 20 mM HEPES-Tris pH 7.5) containing 1 µM of valinomycin and the indicated concentrations of L-[^3H]substrate.

ASCT2 = target: T2, ASCT2 (Homo sapiens, UniProt Q15758); assay: Radiolabelled uptake in oocytes expressing ASCT2; assay type: cell-based; conditions: 10 µM radiolabelled substrate, 10 min, room temperature
T2 sequence (Q15758 1-541): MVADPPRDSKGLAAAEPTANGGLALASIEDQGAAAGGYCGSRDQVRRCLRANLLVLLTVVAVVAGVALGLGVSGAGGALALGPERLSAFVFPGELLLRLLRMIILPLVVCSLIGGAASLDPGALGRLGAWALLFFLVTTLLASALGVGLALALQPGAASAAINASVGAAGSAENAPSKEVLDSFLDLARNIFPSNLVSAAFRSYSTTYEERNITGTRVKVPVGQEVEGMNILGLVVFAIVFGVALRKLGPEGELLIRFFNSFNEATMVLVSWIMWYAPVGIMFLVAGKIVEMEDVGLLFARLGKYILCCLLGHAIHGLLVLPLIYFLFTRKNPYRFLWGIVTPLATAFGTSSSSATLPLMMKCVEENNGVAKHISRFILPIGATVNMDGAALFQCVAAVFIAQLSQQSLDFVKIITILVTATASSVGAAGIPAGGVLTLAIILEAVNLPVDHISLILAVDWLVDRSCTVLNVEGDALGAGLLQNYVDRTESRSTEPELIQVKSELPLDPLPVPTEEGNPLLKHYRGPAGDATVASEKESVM
Method: Uptake of L-[^3H]amino acids (PerkinElmer Life Sciences) was measured in oocytes expressing wild-type and mutant ASCT1, and uninjected oocytes. Five oocytes were incubated in Cl^−-containing buffer with 10 µM L-[^3H]amino acids at room temperature. After 10 min, uptake was terminated by three rapid washes in ice-cold Cl^−-containing buffer followed by lysis in 50 mM NaOH and 1% SDS. L-[^3H]amino acids were measured by scintillation counting using a Trilux beta counter (PerkinElmer Life Sciences).
Supplementary Figure 6. GltPh‐R397C, ASCT1 and ASCT2 are functional cysteine transporters. (a) […]
7.5) containing 1 µM of valinomycin and the 10µM 35S‐cysteine. […]
(1 picture or pasted object on this page, not shown here)

SMILES | IC50 for inhibition of L-[3H]aspartate transport (wild-type GltPh; 100 nM L-[3H]aspartate) | Radiolabelled substrate uptake into oocytes (in words) (ASCT2) | Transport of radiolabelled substrate into proteoliposomes (in words) (wild-type GltPh)
N[C@@H](CCC(=O)Nc1ccc([N+](=O)[O-])cc1)C(=O)O [GPNA, glutamyl-p-nitroanilide] | ineffective | – | –
N[C@@H](CS)C(=O)O [L-cysteine] | – | robust L-[^35S]cysteine uptake | –
NC(=O)CC[C@H](N)C(=O)O [L-glutamine] | – | robust L-[^3H]glutamine uptake | not transported
N[C@@H](CO)C(=O)O [L-serine] | – | observe L-[^3H]serine uptake | not transported
